In the test the test system is Swiss mice, Sarcoma 180 sc, mean tumor weight T/C. As to the kind of experiment: NCI In Vivo Anticancer Drug Screen. Data for tumor model Sarcoma 180 (subcutaneous) in Swiss mice. The conditions noted are these: endpoint: mean tumor weight, higher = larger tumour. The method in brief: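 Antitumor activity is assessed in mice with transplantable tumors. Treated (T) and vehicle control (C) groups are compared on survival or tumor size.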

The mark [1] stands for this setting: dose: 83.0 mg/kg/injection, schedule: Q01DX007 (ip), vehicle: carboxymethylcellulose (CMC).
Where [2] appears, read: dose: 125.0 mg/kg/injection, schedule: Q01DX007 (ip), vehicle: carboxymethylcellulose (CMC).

As usually defined, the T/C is the result in the treated group divided by that in the control group, in per cent.

Each structure is given as a SMILES string. “And” between values parts separate entries of the source, which are not always exact repeats. Equal entries are not always repeated.

`Brc1ccc(-c2csc(Nc3nc(-c4ccc(Br)cc4)cs3)n2)cc1`: the T/C runs as follows: (dose: 200.0 mg/kg/injection, schedule: Q01DX007 (ip), vehicle: carboxymethylcellulose (CMC)) 56 % of control and 73 % of control; (dose: 300.0 mg/kg/injection, schedule: Q01DX007 (ip), vehicle: carboxymethylcellulose (CMC)) 52 % of control and 60 % of control; (dose: 675.0 mg/kg/injection, schedule: Q01DX007 (ip), vehicle: carboxymethylcellulose (CMC)) 31 % of control.
In the case of `C=CCNc1ccc(C)cc1`, the T/C was 72 % of control and 88 % of control (dose: 30.0 mg/kg/injection, schedule: Q01DX007 (ip), vehicle: carboxymethylcellulose (CMC)); 86 % of control (dose: 55.0 mg/kg/injection, schedule: Q01DX007 (ip), vehicle: carboxymethylcellulose (CMC)); 109 % of control (dose: 69.0 mg/kg/injection, schedule: Q01DX007 (ip), vehicle: carboxymethylcellulose (CMC)); 76 % of control under setting [1]; 76 % of control and 83 % of control (dose: 105.0 mg/kg/injection, schedule: Q01DX007 (ip), vehicle: carboxymethylcellulose (CMC)); 26 % of control under setting [2]. Also, the T/C (dose: 157.0 mg/kg/injection, schedule: Q01DX007 (ip), vehicle: carboxymethylcellulose (CMC)) is 94 % of control.
On to `CN(/N=N/c1nc[nH]c1C(N)=O)c1ccccc1`, for which the T/C (dose: 15.5 mg/kg/injection, schedule: Q#A X014 (ip), vehicle: methylcellulose (MC)) is 89 % of control; the T/C (dose: 31.0 mg/kg/injection, schedule: Q#A X014 (ip), vehicle: methylcellulose (MC)) was 99 % of control; the T/C (dose: 62.5 mg/kg/injection, schedule: Q#A X014 (ip), vehicle: methylcellulose (MC)) is 46 % of control.
Take `CN(CC#N)/N=N/c1nc[nH]c1C(N)=O`: the T/C (dose: 225.0 mg/kg/injection, schedule: Q01DX007 (ip), vehicle: carboxymethylcellulose (CMC)) was 38 % of control.
Turning to `CC(=O)NC(CCC(=O)C=[N+]=N)C(=O)O` (stereo unspecified), the T/C (dose: 0.03 mg/kg/injection, schedule: Q01DX007 (ip), vehicle: water) is 62 % of control and 80 % of control; the T/C (dose: 0.05 mg/kg/injection, schedule: Q01DX007 (ip), vehicle: water) is 58 % of control and 63 % of control; the T/C (dose: 0.1 mg/kg/injection, schedule: Q01DX007 (ip), vehicle: water) is 13 % of control and 26 % of control; the T/C (dose: 0.2 mg/kg/injection, schedule: Q01DX007 (ip), vehicle: water) was 1 % of control.
Turning to `CC/C(=C(/CC)c1ccc(O)cc1)c1ccc(O)cc1`, the T/C (dose: 19.69 mg/kg/injection, schedule: Q01DX007 (sc), vehicle: steriod suspending solution) was 54 % of control; the T/C (dose: 22.13 mg/kg/injection, schedule: Q01DX007 (sc), vehicle: steriod suspending solution) was 51 % of control; the T/C (dose: 24.0 mg/kg/injection, schedule: Q01DX007 (sc), vehicle: steriod suspending solution) is 51 % of control; the T/C (dose: 39.38 mg/kg/injection, schedule: Q01DX007 (sc), vehicle: steriod suspending solution) was 42 % of control; the T/C (dose: 44.25 mg/kg/injection, schedule: Q01DX007 (sc), vehicle: steriod suspending solution) is 60 % of control; the T/C (dose: 48.0 mg/kg/injection, schedule: Q01DX007 (sc), vehicle: steriod suspending solution) was 37 % of control. Also, the T/C is 80 % of control (dose: 70.8 mg/kg/injection, schedule: Q01DX007 (sc), vehicle: steriod suspending solution); 65 % of control (dose: 78.75 mg/kg/injection, schedule: Q01DX007 (sc), vehicle: steriod suspending solution); 30 % of control (dose: 96.0 mg/kg/injection, schedule: Q01DX007 (sc), vehicle: steriod suspending solution); 72 % of control (dose: 118.0 mg/kg/injection, schedule: Q01DX007 (sc), vehicle: steriod suspending solution); 52 % of control (dose: 157.5 mg/kg/injection, schedule: Q01DX007 (sc), vehicle: steriod suspending solution); 57 % of control (dose: 177.0 mg/kg/injection, schedule: Q01DX007 (sc), vehicle: steriod suspending solution).
Take `c1cncc(CSc2ncnc3nc[nH]c23)c1`: the T/C by setting is: (dose: 11.1 mg/kg/injection, schedule: Q#A X014 (ip), vehicle: methylcellulose (MC)) 53 % of control; (dose: 16.65 mg/kg/injection, schedule: Q#A X014 (ip), vehicle: methylcellulose (MC)) 60 % of control; (dose: 25.0 mg/kg/injection, schedule: Q#A X014 (ip), vehicle: methylcellulose (MC)) 70 % of control; (dose: 37.5 mg/kg/injection, schedule: Q#A X014 (ip), vehicle: methylcellulose (MC)) 47 % of control.
Regarding `CCN(CC)c1ccc2cc3ccc(=[N+](CC)CC)cc-3oc2c1`, the T/C runs as follows: (dose: 0.42 mg/kg/injection, schedule: Q#A X014 (ip), vehicle: carboxymethylcellulose (CMC)) 84 % of control; (dose: 0.83 mg/kg/injection, schedule: Q#A X014 (ip), vehicle: carboxymethylcellulose (CMC)) 106 % of control; (dose: 1.67 mg/kg/injection, schedule: Q#A X014 (ip), vehicle: carboxymethylcellulose (CMC)) 82 % of control; (dose: 3.35 mg/kg/injection, schedule: Q#A X014 (ip), vehicle: carboxymethylcellulose (CMC)) 73 % of control; (dose: 6.25 mg/kg/injection, schedule: Q01DX007 (ip), vehicle: other) 111 % of control; (dose: 12.5 mg/kg/injection, schedule: Q01DX007 (ip), vehicle: other) 98 % of control.
Consider `O=C(O)c1c(-c2ccccc2)[nH]c2cc(Cl)ccc2c1=O`, for which the T/C reads like this: (dose: 55.5 mg/kg/injection, schedule: Q01DX007 (ip), vehicle: carboxymethylcellulose (CMC)) 87 % of control; under setting [1], 51 % of control; under setting [2], 25 % of control.
On to `O=[N+]([O-])c1cccc2nsnc12`, for which the T/C was 114 % of control (dose: 12.5 mg/kg/injection, schedule: Q01DX007 (ip), vehicle: carboxymethylcellulose (CMC)) and 174 % of control (dose: 25.0 mg/kg/injection, schedule: Q01DX007 (ip), vehicle: carboxymethylcellulose (CMC)).
As for `CCCCOCN1CCCCC1`, the T/C reads like this: (dose: 50.0 mg/kg/injection, schedule: Q01DX007 (ip), vehicle: carboxymethylcellulose (CMC)) 64 % of control; (dose: 100.0 mg/kg/injection, schedule: Q01DX007 (ip), vehicle: carboxymethylcellulose (CMC)) 123 % of control.
Turning to `CCc1c(CC(=O)O)c2cc(C)ccc2n1Cc1ccc(Cl)cc1`, the T/C is 82 % of control (dose: 6.25 mg/kg/injection, schedule: Q01DX007 (ip), vehicle: saline); 98 % of control and 87 % of control (dose: 12.5 mg/kg/injection, schedule: Q01DX007 (ip), vehicle: saline); 95 % of control (dose: 24.0 mg/kg/injection, schedule: Q01DX007 (ip), vehicle: carboxymethylcellulose (CMC)); 89 % of control (dose: 36.0 mg/kg/injection, schedule: Q01DX007 (ip), vehicle: carboxymethylcellulose (CMC)); 109 % of control (dose: 54.0 mg/kg/injection, schedule: Q01DX007 (ip), vehicle: carboxymethylcellulose (CMC)); 73 % of control (dose: 81.0 mg/kg/injection, schedule: Q01DX007 (ip), vehicle: carboxymethylcellulose (CMC)). Also, the T/C (dose: 100.0 mg/kg/injection, schedule: Q01DX007 (ip), vehicle: saline) is 64 % of control and 80 % of control.
Take `CCc1nc(N)nc(N)c1-c1ccc(Cl)c(Cl)c1.[Cl][Pd][Cl]`: the T/C is 95 % of control (dose: 6.6 mg/kg/injection, schedule: Q01DX007 (ip), vehicle: carboxymethylcellulose (CMC)); 111 % of control (dose: 8.0 mg/kg/injection, schedule: Q01DX007 (ip), vehicle: methylcellulose (MC)); 49 % of control (dose: 10.0 mg/kg/injection, schedule: Q01DX007 (ip), vehicle: carboxymethylcellulose (CMC)); 35 % of control (dose: 15.0 mg/kg/injection, schedule: Q01DX007 (ip), vehicle: carboxymethylcellulose (CMC)); 55 % of control (dose: 15.0 mg/kg/injection, schedule: Q01DX007 (ip), vehicle: methylcellulose (MC)); 34 % of control (dose: 22.5 mg/kg/injection, schedule: Q01DX007 (ip), vehicle: carboxymethylcellulose (CMC)). Further, the T/C (dose: 30.0 mg/kg/injection, schedule: Q01DX007 (ip), vehicle: methylcellulose (MC)) was 51 % of control.
`CN(C)/C=N/c1nccs1`: the T/C runs as follows: (dose: 83.0 mg/kg/injection, schedule: Q01DX007 (ip), vehicle: saline) 58 % of control and 70 % of control; (dose: 125.0 mg/kg/injection, schedule: Q01DX007 (ip), vehicle: saline) 34 % of control and 43 % of control.
As for `O=c1[nH]c(=S)c2[nH]c(=O)[nH]c2[nH]1`, the T/C (dose: 50.0 mg/kg/injection, schedule: Q#A X014 (ip), vehicle: methylcellulose (MC)) is 94 % of control; the T/C (dose: 100.0 mg/kg/injection, schedule: Q#A X014 (ip), vehicle: methylcellulose (MC)) was 73 % of control; the T/C (dose: 200.0 mg/kg/injection, schedule: Q#A X014 (ip), vehicle: methylcellulose (MC)) is 101 % of control.

For the origin of these results see PubChem BioAssay AID342 (DTP/NCI, 2004).
